In US7183312B2, “Taxanes having a C7 heterosubstituted acetate substituent” (FSU Research Foundation, Inc., priority 2000, dated 2007) one finds IC50 data, which are given here for eleven molecules.

Structures are written as SMILES.

This test concerns HCT116. Nature of the test: In vitro cytotoxicity measured by the cell colony formation assay. It is filed as cell-based. Conditions: HCT116 cells; incubated with drugs for 72 h at 37° C.; colonies counted after 7 days; ID50 = drug concentration producing 50% inhibition of colony formation; read-out: IN VITRO ID 50 (nm) HCT116. On the procedure:
In Vitro Cytotoxicity Measured by the Cell Colony Formation Assay
Four hundred cells (HCT116) were plated in 60 mm Petri dishes containing 2.7 mL of medium (modified McCoy's 5a medium containing 10% fetal bovine serum and 100 units/mL penicillin and 100 µg/mL streptomycin). The cells were incubated in a CO2 incubator at 37° C. for 5 h for attachment to the bottom of Petri dishes. The compounds identified in Example 2 were made up fresh in medium at ten times the final concentration, and then 0.3 mL of this stock solution was added to the 2.7 mL of medium in the dish. The cells were then incubated with drugs for 72 h at 37° C. At the end of incubation the drug-containing media were decanted, the dishes were rinsed with 4 mL of Hank's Balance Salt Solution (HBSS), 5 mL of fresh medium was added, and the dishes were returned to the incubator for colony formation. The cell colonies were counted using a colony counter after incubation for 7 days.
Take `CC(=O)O[C@@]12CO[C@@H]1C[C@H](OC(=O)COc1ccccc1)[C@@]1(C)C(=O)[C@H](O)C3=C(C)[C@@H](OC(=O)[C@H](O)[C@@H](NC(=O)OC(C)(C)C)c4ccco4)C[C@@](O)([C@@H](OC(=O)c4ccccc4)C12)C3(C)C` (some centres unmarked) [Compound 5616]: the IC50 is less than 1 nM. To `COCC(=O)O[C@H]1C[C@H]2OC[C@@]2(OC(C)=O)C2[C@H](OC(=O)c3ccccc3)[C@]3(O)C[C@H](OC(=O)[C@H](O)[C@@H](NC(=O)OC(C)(C)C)c4ccco4)C(C)=C([C@@H](O)C(=O)[C@@]21C)C3(C)C` (some centres unmarked) [Compound 5445] belongs less than 1 nM.

For `CC(=O)O[C@@]12CO[C@@H]1C[C@H](OC(=O)COc1ccccc1)[C@@]1(C)C(=O)[C@H](O)C3=C(C)[C@@H](OC(=O)[C@H](O)[C@@H](NC(=O)C=C(C)C)c4ccco4)C[C@@](O)([C@@H](OC(=O)c4ccccc4)C12)C3(C)C` (some centres unmarked) [Compound 5555], the IC50 was less than 1 nM. Consider `CSCC(=O)O[C@H]1C[C@H]2OC[C@@]2(OC(C)=O)C2[C@H](OC(=O)c3ccccc3)[C@]3(O)C[C@H](OC(=O)[C@H](O)[C@@H](NC(=O)OC(C)(C)C)c4ccco4)C(C)=C([C@@H](O)C(=O)[C@@]21C)C3(C)C` (some centres unmarked) [Compound 5600], for which the IC50 was less than 1 nM. In the case of `COCC(=O)O[C@H]1C[C@H]2OC[C@@]2(OC(C)=O)C2[C@H](OC(=O)c3ccccc3)[C@]3(O)C[C@H](OC(=O)[C@H](O)[C@@H](NC(=O)C=C(C)C)c4ccco4)C(C)=C([C@@H](O)C(=O)[C@@]21C)C3(C)C` (some centres unmarked) [Compound 5474], the IC50 is less than 1 nM. For `CC(=O)OCC(=O)O[C@H]1C[C@H]2OC[C@@]2(OC(C)=O)C2[C@H](OC(=O)c3ccccc3)[C@]3(O)C[C@H](OC(=O)[C@H](O)[C@@H](NC(=O)OC(C)(C)C)c4ccco4)C(C)=C([C@@H](O)C(=O)[C@@]21C)C3(C)C` (some centres unmarked) [Compound 5622], the IC50 was less than 1 nM. Consider `C/C=C/C(=O)N[C@@H](c1ccco1)[C@@H](O)C(=O)O[C@H]1C[C@@]2(O)[C@@H](OC(=O)c3ccccc3)C3[C@](C)(C(=O)[C@H](O)C(=C1C)C2(C)C)[C@@H](OC(=O)COc1ccccc1)C[C@H]1OC[C@@]31OC(C)=O` (some centres unmarked) [Compound 5811], for which the IC50 was less than 1 nM. In the case of `CCC(C)(C)OC(=O)NC(c1ccco1)C(O)C(=O)OC1CC2(O)C(OC(=O)c3ccccc3)C3C4(OC(C)=O)COC4CC(OC(=O)COC)C3(C)C(=O)C(O)C(=C1C)C2(C)C` (centres unmarked) [Compound 6226, N-Debenzoyl-N-tert-amyloxycarbonyl-3′-desphenyl-3′-(2-furyl)-10-deacetyl-7-methoxyacetyl taxol], the IC50 was less than 1 nM. Turning to `CC(=O)OCC(=O)O[C@H]1C[C@H]2OC[C@@]2(OC(C)=O)C2[C@H](OC(=O)c3ccccc3)[C@]3(O)C[C@H](OC(=O)[C@H](O)[C@@H](NC(=O)C=C(C)C)c4ccco4)C(C)=C([C@@H](O)C(=O)[C@@]21C)C3(C)C` (some centres unmarked) [Compound 5544], the IC50 is less than 1 nM. Regarding `C/C=C/C(=O)N[C@@H](c1ccco1)[C@@H](O)C(=O)O[C@H]1C[C@@]2(O)[C@@H](OC(=O)c3ccccc3)C3[C@](C)(C(=O)[C@H](O)C(=C1C)C2(C)C)[C@@H](OC(=O)COC)C[C@H]1OC[C@@]31OC(C)=O` (some centres unmarked) [Compound 5835], the IC50 is less than 1 nM. Take `CCC(C)(C)OC(=O)N[C@@H](c1ccco1)[C@@H](O)C(=O)O[C@H]1C[C@@]2(O)[C@@H](OC(=O)c3ccccc3)C3[C@](C)(C(=O)[C@H](O)C(=C1C)C2(C)C)[C@@H](OC(=O)COC(C)=O)C[C@H]1OC[C@@]31OC(C)=O` (some centres unmarked) [Compound 6353]: the IC50 was less than 1 nM.
